Test results as given in US20160251403A1, “PEPTIDE COMBINATIONS AND USES THEREOF IN TREATING DUST MITE ALLERGY” (ALK-ABELLO A/S, priority 2013, published 2016).
No end group written: not given here.

Tests used:
[1] = biological target: DRB1_0405 (Homo sapiens, UniProt P01903+P01911, A100R/A169T/D86S/F76Y/I96L/K127E/L162R/M171V/N62H/P40V/Q125Y/R42H/S133A/S149N/S66Y/V115G/V209L/W38E); test: Competitive MHC class II binding assay, DRB1_0405
[2] = biological target: DRB1_0701 (Homo sapiens, UniProt P01903+P01911, A100R/A102G/A103Q/D57E/D86V/E43K/F76Y/K127E/L162R/M171V/P40G/Q125H/Q99D/R33Q/R42Y/R54Q/S133A/S66F/T210M/V115G/Y107V/Y59L/Y89S); test: Competitive MHC class II binding assay, DRB1_0701;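 also: displacement of a radiolabeled reference peptide from purified HLA class II protein, with complex-bound radioactivity counted after 2–4 days of incubation and six concentrations spanning a 100,000-fold range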
[3] = biological target: DRB1_0901 (Homo sapiens, UniProt P01903+P01911, A100R/A103E/D57H/D86V/F55Y/F60I/F76Y/I96F/K127E/L162R/M171V/P40D/Q125H/Q99R/R33Q/R42F/S133A/S66N/T210M/V115G/W38K/Y107V/Y59G/Y89S); test: Competitive MHC class II binding assay, DRB1_0901;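 also: displacement of a radiolabeled probe peptide from purified HLA class II protein, bound counts read after two to four days incubation, six concentrations spanning 100,000-fold, unlabeled probe as reference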
[4] = biological target: DRB1_1302 (Homo sapiens, UniProt P01903+P01911, A100E/A169T/K41T/L162R/M171V/P40S/Q125H/Q178H/Q39Y/Q99D/R42S/S66N/T262R/V115G/W38E/Y61H); test: Competitive MHC class II binding assay, DRB1_1302;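 also: purified HLA class II protein incubated two to four days with a radiolabeled reference binder and test peptide at six concentrations over a 100,000-fold range, complex-bound radioactivity counted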
[5] = biological target: DRB4_0101 (Homo sapiens, UniProt P01903+P13762, G164S); test: Competitive MHC class II binding assay, DRB4_0101
[6] = biological target: T1, DPA10103-DPB10301 (Homo sapiens, UniProt P04440+P20036, A65V/A84D/A85E/E86D/F38Y/G113D/G114E/G40L/I94L/L37V/M105V/M116V/P115A/R125K/T199I); test: Competitive MHC class II binding assay, DPA10103-DPB10301
T1 sequence (P20036 29-260): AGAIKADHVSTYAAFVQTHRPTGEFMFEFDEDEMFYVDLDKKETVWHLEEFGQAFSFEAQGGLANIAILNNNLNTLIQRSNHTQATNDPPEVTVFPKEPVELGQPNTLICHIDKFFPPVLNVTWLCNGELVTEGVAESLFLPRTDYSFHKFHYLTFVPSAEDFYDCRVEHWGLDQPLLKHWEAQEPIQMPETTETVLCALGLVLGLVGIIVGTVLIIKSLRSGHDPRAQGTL
T1 sequence (P04440 30-258 L37V/F38Y/G40L/A65V/A84D/A85E/E86D/I94L/M105V/G113D/G114E/P115A/M116V/R125K/T199I/V234M): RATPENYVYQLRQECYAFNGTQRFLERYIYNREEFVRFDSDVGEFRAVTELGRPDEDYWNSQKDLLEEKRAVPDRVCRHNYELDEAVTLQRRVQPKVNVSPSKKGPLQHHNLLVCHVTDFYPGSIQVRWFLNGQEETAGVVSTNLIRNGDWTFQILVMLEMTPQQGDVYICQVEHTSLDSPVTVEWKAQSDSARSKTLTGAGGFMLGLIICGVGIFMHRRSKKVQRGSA

[7] = biological target: T2, DPA10103-DPB10402 (Homo sapiens, UniProt P04440+P20036, A65V/A84D/A85E/L207M); test: Competitive MHC class II binding assay, DPA10103-DPB10402
T2 sequence (P20036 29-260): T1 sequence (P20036 29-260)
T2 sequence (P04440 30-258 A65V/A84D/A85E): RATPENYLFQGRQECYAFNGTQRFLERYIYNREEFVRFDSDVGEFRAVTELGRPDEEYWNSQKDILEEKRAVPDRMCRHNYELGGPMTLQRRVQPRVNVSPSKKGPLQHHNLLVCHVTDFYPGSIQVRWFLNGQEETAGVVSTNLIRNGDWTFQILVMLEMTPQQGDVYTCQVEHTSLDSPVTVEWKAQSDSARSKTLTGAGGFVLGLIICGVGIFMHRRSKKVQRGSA

[8] = biological target: DQA10501-DQB10201 (Homo sapiens, UniProt P01909+P01920, A45G/A70V/D89A/E106A/E77G/E98D/H199R/L107V/N214S/P84L/P87L/T103K/T109R/T172A/T60S/V78E/V99I/Y58L/Y62S/Y69I/Y79F); test: Competitive MHC class II binding assay, DQA10501-DQB10201
[9] = biological target: DQA10301-DQB10302 (Homo sapiens, UniProt P01909+P01920, A209T/A45G/C70Q/D89A/DUP78-78/E183D/E77G/F237L/G63E/H199R/I129T/K197E/L178F/L74F/L98V/Q57E/Q76R/S185I/S97I/T217I/T49S/V73L/Y58L); test: Competitive MHC class II binding assay, DQA10301-DQB10302
[10] = biological target: DQA10102-DQB10602; test: Competitive MHC class II binding assay, DQA10102-DQB10602; conditions: read-out: HLA-DQA10102-DQB10602; positive binding at cutoff 1000 nM
[11] = biological target: DRB1_0401 (Homo sapiens, UniProt P01903+P01911, A100K/A169T/F76Y/I96L/K127E/L162R/M171V/N62H/P40V/Q125Y/R42H/S133A/S149N/S66Y/V115G/V209L/W38E); test: Competitive MHC class II binding assay, DRB1_0401
[12] = biological target: DRB3_0101 (Homo sapiens, UniProt P01903+P79483); test: Competitive MHC class II binding assay, DRB3_0101
[13] = biological target: DRB3_0202 (Homo sapiens, UniProt P01903+P79483, A212P/D57E/F66Y/L67A/R103Q/R218S/R40L/S89Y/T80R/V86D/Y55F/Y59H); test: Competitive MHC class II binding assay, DRB3_0202

CC[C@H](C)[C@H](NC(=O)CNC(=O)[C@@H](NC(=O)[C@@H](NC(=O)[C@@H](NC(=O)[C@H](C)NC(=O)[C@@H](NC(=O)[C@H](C)NC(=O)[C@H](CO)NC(=O)[C@H](Cc1c[nH]cn1)NC(=O)[C@@H](NC(=O)[C@H](CCC(N)=O)NC(=O)[C@H](C)NC(=O)[C@H](CC(C)C)NC(=O)[C@H](C)NC(=O)[C@H](CCC(=O)O)NC(=O)[C@@H](N)CCCNC(=N)N)[C@@H](C)O)[C@@H](C)CC)C(C)C)[C@@H](C)CC)[C@@H](C)CC)C(=O)N[C@@H](CCCCN)C(=O)N[C@@H](CC(=O)O)C(=O)N[C@@H](CC(C)C)C(=O)N[C@@H](CC(=O)O)C(=O)N[C@@H](C)C(=O)O [pep-130]
IC50 [1]: < 1000 nM | IC50 [2]: < 1000 nM | IC50 [3]: < 1000 nM | IC50 [4]: < 1000 nM | IC50 [5]: < 1000 nM | IC50 [6]: < 1000 nM | IC50 [7]: < 1000 nM | IC50 [8]: < 1000 nM | IC50 [9]: < 1000 nM | IC50 [10]: < 1000 nM

DNGYGYFAANIDLMMIEE [pep-010]
IC50 [11]: < 1000 nM | IC50 [1]: < 1000 nM | IC50 [2]: < 1000 nM | IC50 [3]: < 1000 nM | IC50 [4]: < 1000 nM | binding to HLA Class II allele DRB1_1302 ([4]; as shown in Table 16a): binds to at least the same alleles as peptide 041 | IC50 [12]: < 1000 nM | binding to HLA Class II allele DRB3_0101 ([12]; as shown in Table 16a): binds to at least the same alleles as peptide 041 | IC50 [13]: < 1000 nM | binding to HLA Class II allele DRB3_0202 ([13]; as shown in Table 16a): binds to at least the same alleles as peptide 041 | IC50 [5]: < 1000 nM | IC50 [7]: < 1000 nM | IC50 [8]: < 1000 nM | binding to HLA Class II allele DQA10501-DQB10201 ([8]; as shown in Table 16a): binds to at least the same alleles as peptide 041 | IC50 [9]: < 1000 nM | IC50 [10]: < 1000 nM

GSGSSWAFSGVAATESAYLA [pep-044]
IC50 [11]: < 1000 nM | IC50 [1]: < 1000 nM | IC50 [2]: < 1000 nM | IC50 [3]: < 1000 nM | IC50 [4]: < 1000 nM | IC50 [13]: < 1000 nM | IC50 [6]: < 1000 nM | IC50 [7]: < 1000 nM | IC50 [8]: < 1000 nM | IC50 [9]: < 1000 nM | IC50 [10]: < 1000 nM

HAVNIVGYSNAQGVDYWIVR [pep-058]
IC50 [11]: < 1000 nM | IC50 [1]: < 1000 nM | IC50 [2]: < 1000 nM | IC50 [3]: < 1000 nM | IC50 [4]: < 1000 nM | IC50 [12]: < 1000 nM | IC50 [5]: < 1000 nM | IC50 [6]: < 1000 nM | IC50 [8]: < 1000 nM | IC50 [10]: < 1000 nM

LVGDNGVLASAIATHAKIRD [pep-110]
IC50 [11]: < 1000 nM | IC50 [3]: < 1000 nM | IC50 [4]: < 1000 nM | IC50 [12]: < 1000 nM | IC50 [5]: < 1000 nM | IC50 [10]: < 1000 nM

LVKGQQYDIKYTWNVPKIAPK [pep-131]
IC50 [2]: < 1000 nM | IC50 [3]: < 1000 nM | IC50 [4]: < 1000 nM | IC50 [13]: < 1000 nM | IC50 [6]: < 1000 nM
